According to the NIST ThermoML archive (doi:10.1021/je049579x):
“And” between values parts separate entries of the source, which are not always exact repeats. Equal entries are not always repeated.

Details: Crystal, Torsion effusion method

[I][Lu]([I])[I] [lutetium triiodide]
Details | vapor or sublimation pressure
862 K | 3e-05 kPa
875 K | 6e-05 kPa
883 K | 7.6e-05 kPa
888 K | 8.9e-05 kPa
892 K | 7.6e-05 kPa
893 K | 0.000105 kPa
894 K | 0.00012 kPa
895 K | 0.00012 kPa
896 K | 0.000151 kPa
897 K | 0.00012 kPa
898 K | 0.000151 kPa
899 K | 0.000151 kPa
900 K | 0.000105 kPa
901 K | 0.00012 kPa
904 K | 0.000151 kPa and 0.000182 kPa
905 K | 0.000182 kPa
906 K | 0.000224 kPa and 0.000166 kPa
909 K | 0.000209 kPa and 0.000151 kPa and 0.000166 kPa
911 K | 0.00024 kPa and 0.000195 kPa
912 K | 0.000209 kPa
913 K | 0.00024 kPa
915 K | 0.000269 kPa
916 K | 0.000302 kPa and 0.00024 kPa
917 K | 0.000347 kPa
918 K | 0.00024 kPa
919 K | 0.000209 kPa
920 K | 0.000269 kPa and 0.000288 kPa
921 K | 0.000331 kPa
923 K | 0.000372 kPa
924 K | 0.000363 kPa
926 K | 0.000269 kPa and 0.000447 kPa
927 K | 0.000347 kPa
928 K | 0.000513 kPa and 0.000363 kPa and 0.000389 kPa
929 K | 0.000389 kPa
931 K | 0.000513 kPa
932 K | 0.000501 kPa
933 K | 0.000575 kPa
935 K | 0.000537 kPa
936 K | 0.000513 kPa
937 K | 0.000513 kPa
938 K | 0.000724 kPa [middle of 4 runs]
940 K | 0.000692 kPa
942 K | 0.000759 kPa
943 K | 0.000759 kPa and 0.000692 kPa
945 K | 0.000692 kPa and 0.000575 kPa and 0.000724 kPa
948 K | 0.001047 kPa and 0.000776 kPa
949 K | 0.000933 kPa
950 K | 0.001023 kPa
951 K | 0.001072 kPa and 0.000891 kPa
952 K | 0.001122 kPa
953 K | 0.000933 kPa
954 K | 0.001 kPa
955 K | 0.000832 kPa
958 K | 0.001413 kPa and 0.001445 kPa and 0.001148 kPa
959 K | 0.001445 kPa and 0.00123 kPa
960 K | 0.001514 kPa
961 K | 0.001479 kPa
962 K | 0.001349 kPa
963 K | 0.001413 kPa
964 K | 0.00123 kPa
967 K | 0.00195 kPa and 0.001622 kPa
968 K | 0.002239 kPa and 0.001995 kPa
969 K | 0.001622 kPa
970 K | 0.002138 kPa
972 K | 0.001905 kPa and 0.002239 kPa and 0.00182 kPa
974 K | 0.001738 kPa
975 K | 0.002138 kPa
976 K | 0.002951 kPa and 0.00257 kPa
977 K | 0.002884 kPa and 0.002138 kPa
978 K | 0.002455 kPa
979 K | 0.002291 kPa and 0.002951 kPa
983 K | 0.002951 kPa and 0.002399 kPa
985 K | 0.003631 kPa and 0.003162 kPa and 0.003236 kPa
986 K | 0.003981 kPa and 0.003715 kPa
987 K | 0.00302 kPa
991 K | 0.004266 kPa
993 K | 0.004677 kPa and 0.00389 kPa
994 K | 0.004074 kPa and 0.003388 kPa and 0.004169 kPa
995 K | 0.005012 kPa and 0.003631 kPa
996 K | 0.005012 kPa
1004 K | 0.00631 kPa and 0.005623 kPa
